Experiments:
[1] = test system: A. quina (AcaVNAK03); assay: Amoebicidal activity assay on trophozoites; format: cell-based; settings: Acanthamoeba quina, 24 h of incubation
Experimental: (§1) The activity against two clinical isolates of free-living amoebae, Acanthamoeba lugdunensis (strain AcaVNAK02) and Acanthamoeba quina (strain AcaVNAK03), both belonging to the T4 genotype, was tested in vitro as previously described. The trophozoites were cultivated in 25 cm^2 tissue culture flasks under axenic conditions in peptone-yeast extract-glucose medium (PYG). The cultivation was carried out under aerobic conditions at laboratory temperature. For the experiments, a fresh 72 h culture was used. Acanthamoebae adherent to flasks represented the trophozoite form and was used in the subsequent assay. Experiments were carried out in 96-well microtiter plates under sterile conditions at 37 °C. Each well was seeded with 100 µL (2 × 10^5 cells mL^−1) of a trophozoite suspension. Then, 100 µL of a freshly prepared medium containing a tested compound at 6 different concentrations was added to all wells, except for the untreated control wells that received 100 µL of the pure medium. Each compound was tested at final concentrations of 500, 250, 125, 62.5, 31.25, and 15.6 µM. The reduction of trophozoites was recorded after 24 h by counting the surviving cells in a Bürker–Türk hemocytometer. The growth control after 24 h (amoebae in inoculum without treatment): A. lugdunensis (AcaVNAK02): 2.5 × 10^5 cells mL^−1, A. quina (AcaVNAK03): 2.1 × 10^5cells/mL comparing to initial inoculum 1 × 10^5 cells mL^−1. The viability of trophozoites was determined by trypan blue exclusion. The EC50 (effective concentration of tested compound that reduces the survival of amoebae by 50%) values were calculated by linear regression analysis using Microsoft Office Excel 2016 (Microsoft Corporation, Redmond, WA, USA) software. All experiments were performed in quadruplicate for each concentration.

[2] = test system: A. lugdunensis (AcaVNAK02); assay: Amoebicidal activity assay on trophozoites; format: cell-based; settings: Acanthamoeba lugdunensis, 24 h of incubation
Experimental: as §1

[3] = Equilibrium surface tension measurements (Wilhelmy plate); format: physicochemical; settings: 25 °C; for cmc (critical micelle concentration) / γcmc (surface tension at the cmc): aqueous solution; for Acmc (surface area per head group at surface saturation): water/air interface, from Gibbs adsorption isotherm
Experimental: The physicochemical properties of the compounds were investigated by the measurements of surface tension of their aqueous solutions. The critical micelle concentration (cmc), the surface tension value at the cmc (γcmc), and the surface area per head group at the surface saturation (Acmc) were determined.
The equilibrium surface tension measurements were carried out according to the procedure described previously. The Wilhelmy plate technique was used for the determination of the solvent surface tension values. Measurements were performed with a Krüss 100 MK2 tensiometer. All samples were prepared by dissolving amphiphilic compounds in deionized water. The stock solutions were prepared in a volumetric flask. The measurements were performed at 25 ± 0.1 °C. The measurements of equilibrium surface tension were taken repeatedly. The values were recorded every 360 s. The measurement was stopped if the difference between the values of two successive measurements was less than 5 × 10^−5 N·m^−1. The breakpoint of the linear parts of the surface tension vs. log c curve was used for the determination of the critical micelle concentration (cmc) and surface tension at the cmc (γcmc). The adsorbed amount of surfactant Γcmc was also determined from surface tension data. The value was calculated using the Gibbs adsorption isotherm: Γcmc=dγ/dlogcT/2.303iRT where γ represents the surface tension (mN/m), c is the concentration of surfactant, i represents the prefactor (CAP have i = 2), R is the gas constant, and T represents the absolute temperature. The slope below the cmc in the surface tension vs. log c plots was used for the determination of the surface excess. The values of area per head group at the water/air interface (Acmc) were obtained from the following equation: Acmc=10^18/NAΓcmc where NA represents the Avogadros constant.

[4] = test system: Acanthamoeba trophozoites; assay: Amoebicidal activity assay, both strains; format: cell-based
Experimental: as §1, with “The growth control after 24 h (amoebae in inoculum without treatment): A. lugdunensis (AcaVNAK02): 2.5 × 10^5 cells mL^−1, A. quina (AcaVNAK03): 2.1 × 10^5cells/mL comparing to initial inoculum 1 × 10^5 cells mL^−1.” left out, “The EC50 (effective concentration of tested compound that reduces the survival of amoebae by 50%) values were calculated by linear regression analysis using Microsoft Office Excel 2016 (Microsoft Corporation, Redmond, WA, USA) software. All experiments were performed in quadruplicate for each concentration.” left out

[5] = test system: MDA-MB-231 (human mammary gland adenocarcinoma); assay: MTS cell proliferation/viability assay; format: cell-based; settings: MDA-MB-231, MTS, 72 h
Experimental: (§2) The human cancer cell line HCT116 (human colorectal adenocarcinoma), HeLa (human cervical adenocarcinoma), Jurkat (human leukemic T cell lymphoma), and MDA-MB-231 (human mammary gland adenocarcinoma, triple-negative) were cultured in RPMI 1640 medium (Biosera, Kansas City, MO, USA). MCF-7 (human breast adenocarcinoma), A2058 (human metastatic melanoma), PANC-1 (human pancreatic adenocarcinoma), and NIH 3T3 (murine fibroblasts) cell lines were maintained in a growth medium consisting of high glucose Dulbecco’s Modified Eagle Medium with sodium pyruvate (Biosera, Kansas City, MO, USA). MCF-10A cell line (human mammary gland epithelial cells) was maintained in a growth medium consisting of high glucose DMEM F12 Medium (Biosera, Kansas City, MO, USA) + Suppl. (insulin, EGF-[…], HC-hydrocortisone, choleratoxin all Sigma, Steinheim, Germany). The growth medium was supplemented with a 10% fetal bovine serum, penicillin (100 IU/mL), and streptomycin (100 μg/mL) (all Invitrogen, Carlsbad, CA, USA), and cells were maintained in an atmosphere containing 5% CO2 in humidified air at 37 °C. Cell viability, estimated by trypan exclusion, was greater than 95% before each experiment.
(§3) The metabolic activity colorimetric assay (MTS) was used to determine the effects of CA (c = 10–300 µM) and compounds CAP 6, CAP 8, CAP 10, and CAP 12 (c = 1–100 µM) on the metabolic activity of several cell lines. After 72 h of incubation, 10 µL of MTS (Promega, Madison, WI, USA) was added to each well according to the CellTiter 96® AQueous One Solution Cell Proliferation Assay protocol. After a minimum of 1 h incubation, the absorbance was measured at 490 nm using the automated Cytation^TM 3 Cell Imaging Multi-Mode Reader (Biotek, Winooski, VT, USA). The absorbance of the control wells was taken as 1.0 (100%), and the results were expressed as a fold of the control. All experiments were performed in triplicate. Ideal predictive IC50 values were calculated from MTS analyses-based concentration concentration-dependent trends.

[6] = test system: A2058 (human metastatic melanoma); assay: MTS cell proliferation/viability assay; format: cell-based; settings: 72 h
Experimental: as §2, §3

[7] = test system: HeLa (human cervical adenocarcinoma); assay: MTS cell proliferation/viability assay; format: cell-based; settings: 72 h
Experimental: as §2, §3

[8] = test system: Jurkat (human leukemic T cell lymphoma); assay: MTS cell proliferation/viability assay; format: cell-based; settings: 72 h
Experimental: as §2, §3

[9] = test system: PANC-1 (human pancreatic adenocarcinoma); assay: MTS cell proliferation/viability assay; format: cell-based; settings: PANC-1, MTS, 72 h
Experimental: as §2, §3

[10] = test system: MCF-7 (human breast adenocarcinoma); assay: MTS cell proliferation/viability assay; format: cell-based; settings: MCF7, MCF-7, MTS, 72 h
Experimental: as §2, §3

[11] = test system: HCT116 (human colorectal adenocarcinoma); assay: MTS cell proliferation/viability assay; format: cell-based; settings: HCT-116, 72 h
Experimental: as §2, §3

[12] = test system: tested cancer cell lines; assay: MTS assay, span over the tested cell lines; format: cell-based; settings: Homo sapiens, 72 h
Experimental: as §2, §3

| cmc (critical micelle concentration) [3] | γcmc (surface tension at the cmc) [3] | Acmc (surface area per head group at surface saturation) [3] | IC50 [5] | IC50 [6] | IC50 [7] | IC50 [8] | IC50 [9] | IC50 [10] | IC50 [11] | IC50 [12] | Structure (SMILES) | EC50 [1] | EC50 [2] | times higher inhibitory activity than phosphanium salts of rosmarinic acid ([4]; comparison to compounds of ref 15) | EC50 ([4]; Acanthamoeba, after 24 h) |
| --- | --- | --- | --- | --- | --- | --- | --- | --- | --- | --- | --- | --- | --- | --- | --- |
| 7.5 × 10^−3 mol·dm^−3 | 36.4 mN·m^−1 | 0.84 nm^2 | 37 ± 0.3 µM | 30.5 ± 1.5 µM | 34 ± 1.8 µM | 8.5 ± 0.2 µM | 98.8 ± 2.4 µM | 44.5 ± 0.1 µM | 31 ± 0.4 µM | 30.5 to 44.5 µM | CC(=O)Oc1ccc(/C=C/C(=O)OCCCCCC[P+](c2ccccc2)(c2ccccc2)c2ccccc2)cc1OC(C)=O [CAP 6, P,P,P-triphenyl-6-{(2E)-3-[3,4-(diacetyloxy)penyl]prop-2-enoyloxy}hexane-1-phosphanium bromide] | 44.1 ± 9.2 µM | 74.2 ± 18.4 µM | more than 15 times |  |
|  |  |  | > 300 µM | > 300 µM | > 300 µM | > 300 µM | > 300 µM | > 300 µM | > 300 µM | > 300 µM | O=C(O)C=Cc1ccc(O)c(O)c1 [CA, 3-(3,4-dihydroxyphenyl)-2-propenoic acid, reference compound] | 3000 ± 1510 µM | > 100000 µM |  | ≥ 3000 µM |
| 5.2 × 10^−3 mol·dm^−3 | 37.7 mN·m^−1 | 0.82 nm^2 | 4.8 ± 0.5 µM | 9.4 ± 0.3 µM | 7.1 ± 0.3 µM | 6.9 ± 0.3 µM | > 100 µM | 48.7 ± 0.1 µM | 8.3 ± 0.6 µM | 4.8 to 9.4 µM | CC(=O)Oc1ccc(/C=C/C(=O)OCCCCCCCC[P+](c2ccccc2)(c2ccccc2)c2ccccc2)cc1OC(C)=O [CAP 8, P,P,P-triphenyl-8-{(2E)-3-[3,4-(diacetyloxy)penyl]prop-2-enoyloxy}okctane-1-phosphanium bromide] | 94.1 ± 14.5 µM | 99.8 ± 23.7 µM |  |  |
| 1.0 × 10^−3 mol·dm^−3 | 39.4 mN·m^−1 | 1.33 nm^2 | 3.5 ± 0.6 µM | 9 ± 0.5 µM | 3.3 ± 1.1 µM |  | > 100 µM | 4.9 ± 0.7 µM | 8.3 ± 0.6 µM | 0.9 to 9.5 µM | CC(=O)Oc1ccc(/C=C/C(=O)OCCCCCCCCCCCC[P+](c2ccccc2)(c2ccccc2)c2ccccc2)cc1OC(C)=O [CAP 12, P,P,P-triphenyl-12-{(2E)-3-[3,4-(diacetyloxy)penyl]prop-2-enoyloxy}dodecane-1-phosphanium bromide] | 3320 ± 2060 µM | 3120 ± 941 µM |  |  |
| 2.2 × 10^−3 mol·dm^−3 | 37.1 mN·m^−1 | 1.02 nm^2 | 4.9 ± 0.5 µM | 9 ± 0.5 µM | 8 ± 0.7 µM |  | 91.2 ± 2.6 µM | 9.5 ± 0.2 µM | 9.2 ± 0.3 µM | 0.9 to 9.5 µM | CC(=O)Oc1ccc(/C=C/C(=O)OCCCCCCCCCC[P+](c2ccccc2)(c2ccccc2)c2ccccc2)cc1OC(C)=O [CAP 10, P,P,P-triphenyl-10-{(2E)-3-[3,4-(diacetyloxy)penyl]prop-2-enoyloxy}decane-1-phosphanium bromide] | 291 ± 36.8 µM | 834 ± 303 µM |  |  |
